{
  "source": "paper PMC3343029",
  "about": "“Crystal Structure of the Cysteine Desulfurase DndA from Streptomyces lividans Which Is Involved in DNA Phosphorothioation” (PLoS ONE, 2012)",
  "target": "T1, DndA (Streptomyces lividans, UniProt A7TUX7, C344S)",
  "T1 construct": "full length residues 1-380, N-terminal His-tag (pET28a), expressed in E. coli BL21(DE3); homodimer; residues 2-359 in the model",
  "T1 sequence (A7TUX7 entry or part of it C344S)": "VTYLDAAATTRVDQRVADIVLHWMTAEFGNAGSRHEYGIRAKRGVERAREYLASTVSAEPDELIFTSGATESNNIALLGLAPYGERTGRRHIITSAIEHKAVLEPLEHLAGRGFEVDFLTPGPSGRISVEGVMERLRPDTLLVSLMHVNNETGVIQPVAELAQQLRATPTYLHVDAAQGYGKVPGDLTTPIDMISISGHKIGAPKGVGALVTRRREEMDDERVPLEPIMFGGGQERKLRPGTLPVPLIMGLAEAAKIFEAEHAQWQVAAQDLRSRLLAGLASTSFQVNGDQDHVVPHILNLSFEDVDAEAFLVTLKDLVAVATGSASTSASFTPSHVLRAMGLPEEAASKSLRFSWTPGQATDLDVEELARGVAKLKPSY",
  "assay": "X-ray crystallography, […] Å",
  "assay_type": "binding",
  "details": "covalent; Schiff base with Lys200; crystals at pH 5.5 without L-cysteine",
  "data": [
    {"smiles": "Cc1ncc(COP(=O)(O)O)c(C=O)c1O", "note": "[PLP]", "values": [
      {"measurement": "X-ray crystallography, 2.4 Å", "value": "there is a PLP cofactor which forms a Schiff base covalent bond with the amino"}
    ]}
  ]
}
